Experimental data as given in patent publication US20230091047A1 (priority 2019, published 2023).
Where two headings read alike, the source gives them in different places.

Columns and labels:
[1] = test system: HBV (HepG2.117 cell line, inducibly HBV producing); test: Anti-HBV activity: intracellular HBV DNA by real-time PCR in HepG2.117 cells after 3 days of treatment; format: cell-based, hepatitis B virus
Summary of the method: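 Tet-off HepG2.117; HBV replication induced (no doxycycline); serial compound dilutions, 3 d; intracellular HBV DNA by real-time PCR, HBV-specific primers/probe.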

[2] = in vitro; format: cell-based; conditions: human, HepG2 or HepG2.117 cells, ATPlite, mean value
Summary of the method: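 Luminescent ATP quantitation served as the viability endpoint following a 3- or 4-day incubation with test compounds.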

[3] = Hepatitis B virus, HepG2.117, 72 h, HepG2.117 cells, 3 days of treatment, intracellular HBV DNA by real-time PCR; mean value; read-out: EC50 (μM, mean value)
[4] = 3-days incubation (unmarked values)
[5] = Hepatitis B virus, HepG2.117, 72 h, HepG2.117 cells, intracellular HBV DNA by real-time PCR, 3 days of treatment, mean value; read-out: EC50 (μM, mean value)
[6] = 3-days incubation (not marked with *)

Structure (SMILES)	EC50 [1, 3] [µM]	CC50 at 3 days [2, 4] [µM]	EC50 [1, 5] [µM]	CC50 at 3 days [2, 6] [µM]
COc1ccccc1-n1c(N)nc2c(c1=O)CCN(C(=O)c1ccc(Cl)c(Cl)c1)C2 [Compound C57, 2-amino-7-(3,4-dichlorobenzoyl)-3-(2-methoxyphenyl)-5,6,7,8-tetrahydropyrido[3,4-d]pyrimidin-4(3H)-one]	0.91	> 50		
CNc1noc2cc(-n3c(N[C@@H](C)c4ccc(OC(F)(F)F)cc4)nc4c(c3=O)C[C@@H](C)N(C(=O)c3ccc(Cl)c(Cl)c3)C4)ccc12 [Compound C616]			0.19	> 50
CNC(=O)c1ccc(-n2c(NCc3cccc(-c4nnc[nH]4)c3)nc3c(c2=O)C[C@@H](C)N(C(=O)c2ccc(Cl)c(Cl)c2)C3)cc1 [Compound C597]			9.49	> 50
CNC(=O)c1ccc(-n2c(NCc3cnn(C)n3)nc3c(c2=O)C[C@@H](C)N(C(=O)c2ccc(Cl)c(Cl)c2)C3)cc1 [Compound C560]			2.59	> 50
CNC(=O)c1ccc(-n2c(NC3CC3(C)C)nc3c(c2=O)C[C@@H](C)N(C(=O)c2ccc(Cl)c(Cl)c2)C3)cc1 (stereo partly drawn) [Compound C333, 4-[(6R)-7-(3,4-dichlorobenzoyl)-2-[(2,2-dimethylcyclopropyl)amino]-6-methyl-4-oxo-5,6,7,8-tetrahydropyrido[3,4-d]pyrimidin-3(4H)-yl]-N-methylbenzamide]	1.64	> 43		
COc1ccc(CNc2nc3c(c(=O)n2-c2cccnc2C)CCN(C(=O)c2ccc(Cl)c(Cl)c2)C3)cc1 [Compound C96, 7-(3,4-dichlorobenzoyl)-2-{[(4-methoxyphenyl)methyl]amino}-3-(2-methylpyridin-3-yl)-5,6,7,8-tetrahydropyrido[3,4-d]pyrimidin-4(3H)-one]	0.65	24.3		
CC(C)Nc1nc2c(c(=O)n1-c1ccc(S(C)(=O)=O)cc1)CCN(C(=O)c1ccc3ccoc3c1)C2 [Compound C139, 7-(1-benzofuran-6-carbonyl)-3-[4-(methanesulfonyl)phenyl]-2-[(propan-2-yl)amino]-5,6,7,8-tetrahydropyrido[3,4-d]pyrimidin-4(3H)-one]	11.2	> 50		
COc1ccc(CNc2nc3c(c(=O)n2-c2ccccc2F)CCN(C(=O)c2ccc(Cl)c(Cl)c2)C3)cc1 [Compound C14, 7-(3,4-dichlorobenzoyl)-3-(2-fluorophenyl)-2-{[(4-methoxyphenyl)methyl]amino}-5,6,7,8-tetrahydropyrido[3,4-d]pyrimidin-4(3H)-one]	1	> 50		
CNS(=O)(=O)c1ccc(-n2c(NC(C)C)nc3c(c2=O)C[C@@H](C)N(C(=O)c2ccc(Cl)c(Cl)c2)C3)cc1 [Compound C339, 4-[(6R)-7-(3,4-dichlorobenzoyl)-6-methyl-4-oxo-2-[(propan-2-yl)amino]-5,6,7,8-tetrahydropyrido[3,4-d]pyrimidin-3(4H)-yl]-N-methylbenzene-1-sulfonamide]	0.57	> 50		
CNC(=O)c1ccc(-n2c(NCC(CO)C3CC3)nc3c(c2=O)C[C@@H](C)N(C(=O)c2ccc(Cl)c(Cl)c2)C3)cc1 (stereo partly shown) [Compound C482]			8.34	> 50
CNC(=O)c1ccc(-n2c(NC(C)C)nc3c(c2=O)C[C@@H](C)N(C(=O)c2ccc(Cl)c(Cl)c2)C3)cc1 [Compound C157, 4-[(6R)-7-(3,4-dichlorobenzoyl)-6-methyl-4-oxo-2-[(propan-2-yl)amino]-5,6,7,8-tetrahydropyrido[3,4-d]pyrimidin-3(4H)-yl]-N-methylbenzamide]	0.04	> 50		
CNC(=O)c1ccc(-n2c(NC(C)c3ccc(C(F)(F)F)cc3)nc3c(c2=O)C[C@@H](C)N(C(=O)c2ccc(Cl)c(Cl)c2)C3)cc1 (stereo partly shown) [Compound C413]			0.15	6.5
CNC(=O)c1ccc(-n2c(NC3CC3)nc3c(c2=O)C[C@@H](C)N(C(=O)c2ccc(Cl)c(Cl)c2)C3)cc1 [Compound C329, 4-[(6R)-2-(cyclopropylamino)-7-(3,4-dichlorobenzoyl)-6-methyl-4-oxo-5,6,7,8-tetrahydropyrido[3,4-d]pyrimidin-3(4H)-yl]-N-methylbenzamide]	0.55	> 50		
CNC(=O)c1ccc(-n2c(NC(C)C)nc3c(c2=O)C[C@@H](C)N(C(=O)c2cc4sc(Br)cc4[nH]2)C3)cc1 [Compound C591]			0.01	23.2
CC(C)Nc1nc2c(c(=O)n1-c1ccc(-c3ncco3)cc1)CCN(C(=O)c1ccc(Cl)c(Cl)c1)C2 [Compound C162, 7-(3,4-dichlorobenzoyl)-3-[4-(1,3-oxazol-2-yl)phenyl]-2-[(propan-2-yl)amino]-5,6,7,8-tetrahydropyrido[3,4-d]pyrimidin-4(3H)-one]	0.47	> 50		
COc1ccccc1-n1c(NCc2ccc(S(C)(=O)=O)cc2)nc2c(c1=O)CCN(C(=O)c1ccc(Cl)c(Cl)c1)C2 [Compound C27, 7-(3,4-dichlorobenzoyl)-2-({[4-(methanesulfonyl)phenyl]methyl}amino)-3-(2-methoxyphenyl)-5,6,7,8-tetrahydropyrido[3,4-d]pyrimidin-4(3H)-one]	1.98	> 50		
CNC(=O)c1ccc(-n2c(N[C@H](C)c3ccccc3OC)nc3c(c2=O)C[C@@H](C)N(C(=O)c2ccc(Cl)c(Cl)c2)C3)cc1 (single isomer, unassigned) [Compound C402a]			0.32	13.8
CC(C)Nc1nc2c(c(=O)n1-c1ccc(NC3COC3)cc1)C[C@@H](C)N(C(=O)c1ccc(Cl)c(Cl)c1)C2 [Compound C190, (6R)-7-(3,4-dichlorobenzoyl)-6-methyl-3-{4-[(oxetan-3-yl)amino]phenyl}-2-[(propan-2-yl)amino]-5,6,7,8-tetrahydropyrido[3,4-d]pyrimidin-4(3H)-one]	0.18	> 50		
COc1ccc(CNc2nc3c(c(=O)[nH]2)CCN(C(=O)c2ccc(Cl)c(Cl)c2)C3)cc1 [Compound C34, 7-(3,4-dichlorobenzoyl)-2-{[(4-methoxyphenyl)methyl]amino}-5,6,7,8-tetrahydropyrido[3,4-d]pyrimidin-4(3H)-one]	4.03	26.6		
CNC(=O)c1ccc(-n2c(NC(C)C)nc3c(c2=O)C[C@@H](C)N(C(=O)c2ccc(F)c(Cl)c2)C3)cc1 [Compound C478]			1.28	> 50
CNC(=O)C12C3C4C1C1C2C3C41n1c(NC(C)C)nc2c(c1=O)C[C@@H](C)N(C(=O)c1ccc(Cl)c(Cl)c1)C2 (stereo partly shown) [Compound C456]			0.4	> 50
CNC(=O)c1ccc(-n2c(N[C@H](C)c3ccc4[nH]ccc4c3)nc3c(c2=O)C[C@@H](C)N(C(=O)c2ccc(Cl)c(Cl)c2)C3)cc1 (single isomer, unassigned) [Compound C449a]			0.04	> 50
COc1ccccc1-n1c(NC2COC2)nc2c(c1=O)CCN(C(=O)c1ccc(Cl)c(Cl)c1)C2 [Compound C48, 7-(3,4-dichlorobenzoyl)-3-(2-methoxyphenyl)-2-[(oxetan-3-yl)amino]-5,6,7,8-tetrahydropyrido[3,4-d]pyrimidin-4(3H)-one]	30.1	> 50		
